ChEMBL document CHEMBL5365416, “Identification of Ecdysteroid Sinapate Esters with COX-2 Inhibitory Effects from Fibraurea recisa Using Molecular Networking and MS2LDA” (2023)
Calls of active or inactive are those of the source. The calls are words filed in the database; no cut-off is given here.

Columns and labels:
RAW264.7 [1] = test: Inhibition of LPS-induced NO production in mouse RAW264.7 cells at 30 uM relative to control; type: functional
RAW264.7 [2] = test: Inhibition of LPS-induced COX2 protein expression in mouse RAW264.7 cells at 1 to 30 uM incubated for 24 hrs by Western blot analysis; type: functional, cell-based; conditions: dose 1-30 µM
RAW264.7 [3] = test: Inhibition of LPS-induced iNOS protein expression in mouse RAW264.7 cells at 30 uM incubated for 24 hrs by Western blot analysis; type: functional, cell-based
RAW264.7 [4] = test: Inhibition of LPS-induced COX2 protein expression in mouse RAW264.7 cells at 0.1 to 30 uM incubated for 24 hrs by Western blot analysis; type: functional, cell-based; conditions: dose 0.1-30 µM

| Compound | inhibition at 30 µM (RAW264.7 [1]) [%] | inhibition (RAW264.7 [2]) | inhibition (RAW264.7 [3]) | inhibition (RAW264.7 [4]) |
| --- | --- | --- | --- | --- |
| COc1cc(/C=C/C(=O)O[C@@H]2C[C@H]3C(=O)C=C4[C@H](CC[C@]5(C)[C@@H]([C@@](C)(O)[C@H](O)C[C@@H](C)C(C)(C)O)CC[C@@]45O)[C@@]3(C)C[C@@H]2O)cc(OC)c1O | 14.7 | inactive | inactive |  |
| C[C@H](C[C@@H](O)[C@](C)(O)[C@H]1CC[C@@]2(O)C3=CC(=O)[C@@H]4C[C@@H](O)[C@@H](O)C[C@]4(C)[C@H]3CC[C@]12C)C(C)(C)O |  |  |  | inactive |
| COC(=O)/C=C/c1cc(OC)c(O)c(OC)c1 |  |  |  | inactive |
| COc1cc(/C=C/C(=O)O[C@H]2C[C@@]3(C)[C@@H](C[C@H]2O)C(=O)C=C2[C@@H]3CC[C@]3(C)[C@@H]([C@@](C)(O)[C@H](O)C[C@@H](C)C(C)(C)O)CC[C@@]23O)cc(OC)c1O | 12.7 | Active | inactive |  |
